Data as given in paper PMC11209700, “In Silico Drug Repurposing Uncovered the Antiviral Potential of the Antiparasitic Drug Oxibendazole Against the Chikungunya Virus” (ACS Omega, 2024).
Starred links: 1 amine or outer side, 2 acyl side, 3 side chain; linkers in the order of their positions; H or OH if unused. Positions of bridges follow the written chain, without caps; N, C: chain ends. Non-standard residues stand in square brackets, D forms with d. Residues, ends and D or L forms follow the SMILES beside them. *: point of attachment. hTyr(3S-OH,4S-OH,3'-OSO3H) = N[C@H](C(=O)O)[C@H](O)[C@@H](O)c1ccc(O)c(OS(=O)(=O)O)c1; Orn(4R-OH,5R-OH) = O=C([C@H](C[C@@H](O)[C@@H](O)N[*:3])N[*:1])[*:2]; Pro(3S-OH,4S-Me) = C[C@H]1CN[C@H](C(=O)O)[C@H]1O; X1 = CCCCCOc1ccc(-c2cc(-c3ccc(C(=O)*)cc3)no2)cc1; Gln(3R-OH) = NC(=O)C[C@@H](O)[C@H](N)C(=O)O; Hyp = O=C(O)[C@@H]1C[C@@H](O)CN1

Tests used:
[1] = Cytotoxicity by MTT assay in Vero cells; conditions: African green monkey
CHIKV BRA/RJ/18 [2] = assay: Antiviral evaluation against CHIKV BRA/RJ/18 replication in Vero cells (plaque assay); assay type: cell-based, Chikungunya virus; conditions: for EC50 / inhibition at 50 µM: Chikungunya virus, Vero; for EC50: 24 h, read-out: CHIKV BRA/RJ/18 EC50; for CHIKV BRA/RJ/18 EC50: Vero cells, MOI 1, 24 h; for inhibition at 50 µM: read-out: CHIKV BRA/RJ/18 inhibition (%); for CHIKV BRA/RJ/18 SI (selectivity index): ratio between CC50 and EC50 values
CHIKV [3] = conditions: cited from earlier work
CHIKV [4] = conditions: read-out: EC50 against CHIKV; cited from earlier work
CHIKV 181-25 strain = assay: Antiviral screening against CHIKV 181-25 replication in Vero cells (plaque assay); assay type: cell-based, Chikungunya virus; conditions: inhibition rate of CHIKV replication at 50 μM, % relative to control, 24 hpi; for inhibition at 50 µM: Chikungunya virus; for CHIKV 181-25 inhibition (%): 50 µM
Protocol: DMSO (0.5%) was used as vehicle control, while CQ (50 μM) was used as a positive control due to its in vitro antiviral activity against CHIKV.[57]
Finally, the overlay medium was removed, and cells were fixed and stained with 10% formaldehyde and 0.2% crystal violet. Plaques were counted, and virus titers were determined as PFU/mL. Inhibition rates were determined by comparing the number of PFU of infected and treated cells and infected and untreated cells (100% infectivity).

CHIKV BRA/RJ/18 [5] = assay: Time-of-drug addition assay; assay type: cell-based; conditions: Chikungunya virus
rats = conditions: doses up to 10 g/kg; cited from earlier work
Zika virus = conditions: read-out: EC50 against Zika virus; cited from earlier work
[6] = single oral dose of 400 mg; cited from earlier work
CHIKV BRA/RJ/18 [7] = assay: Attachment assay; conditions: Chikungunya virus, read-out: inhibition rate in attachment assay
human herpesvirus 8 = conditions: read-out: EC50 against human herpesvirus 8; cited from earlier work
CHIKV BRA/RJ/18 [8] = assay: Virucidal assay; assay type: cell-based, Chikungunya virus; conditions: 50 μM, 2 × 10^5 PFU treated 2 h at 37 °C
mice = conditions: doses up to 10 g/kg; cited from earlier work
CHIKV BRA/RJ/18 [9] = assay: Virus release assay; conditions: 50 μM, 6 hpi
CHIKV BRA/RJ/18 [10] = assay: Entry assay; conditions: Chikungunya virus, read-out: inhibition rate in virus entry assay

COC(=O)Nc1nc2ccc(Sc3ccccc3)cc2[nH]1 [FBZ, fenbendazole]
CC50 at 72 h [1]: > 500 µM | EC50 (CHIKV BRA/RJ/18 [2]): > 50 µM | CHIKV BRA/RJ/18 EC50 (CHIKV BRA/RJ/18 [2]): none exhibited anti-CHIKV activity

CCCc1nc2c(C)cc(-c3nc4ccccc4n3C)cc2n1Cc1ccc(-c2ccccc2C(=O)O)cc1 [telmisartan]
effect on CHIKV infection in mice (CHIKV [3]): ameliorate CHIKV infection in mice | EC50 (CHIKV [4]): 15.3 µM

CCCCCOC(=O)Nc1nc(=O)n([C@@H]2O[C@H](C)[C@@H](O)[C@H]2O)cc1F [CPB, capecitabine]
inhibition at 50 µM (CHIKV 181-25 strain): 0% | CHIKV 181-25 inhibition (%) (CHIKV 181-25 strain): did not present antiviral activity | CHIKV 181-25 inhibition (%) (CHIKV 181-25 strain; listed as CPD): did not inhibit CHIKV replication

CC(C)OC(=O)[C@H](C)N[P@](=O)(OC[C@H]1O[C@@H](n2ccc(=O)[nH]c2=O)[C@](C)(F)[C@@H]1O)Oc1ccccc1 [sofosbuvir]
effect on CHIKV infection in mice (CHIKV [3]): ameliorate CHIKV infection in mice | EC50 (CHIKV [4]): 2.7 µM

CCCOc1ccc2nc(NC(=O)OC)[nH]c2c1 [OBZ, oxibendazole]
inhibition at 50 µM (CHIKV BRA/RJ/18 [5]; read-out: inhibition rate in time-of-addition assay, 50 μM, added after 4 hpi until 10 hpi): ~40% | inhibition at 50 µM (CHIKV BRA/RJ/18 [5]; read-out: inhibition rate in time-of-addition assay, 50 μM, added until 4 hpi): ~55% | lethality (LD50 not determinable) (rats): no deaths were reported | EC50 (Zika virus): 0.7 µM | inhibition at 50 µM (CHIKV 181-25 strain): 66.4 ± 2.5% | side effects in clinical trials [6]: low frequency of side effects | inhibition at 50 µM (CHIKV BRA/RJ/18 [7]): 13.1% | EC50 (human herpesvirus 8): 1.5 µM | virucidal effect (CHIKV BRA/RJ/18 [8]): no virucidal effects were observed | lethality (LD50 not determinable) (mice): no deaths were reported | intracellular/extracellular ratio of virus titers (CHIKV BRA/RJ/18 [9]): 3.78 | CC50 at 72 h [1]: > 500 µM | inhibition at 50 µM (CHIKV BRA/RJ/18 [10]): 33.8% | EC50 (CHIKV BRA/RJ/18 [2]): 11.4 ± 3.2 µM | inhibition at 50 µM (CHIKV BRA/RJ/18 [2]): 61.8 ± 2.7% | CHIKV BRA/RJ/18 SI (selectivity index) (CHIKV BRA/RJ/18 [2]): >44.0

Cc1ccc(C(=O)Nc2ccc(S(=O)(=O)O)c3cc(S(=O)(=O)O)cc(S(=O)(=O)O)c23)cc1NC(=O)c1cccc(NC(=O)Nc2cccc(C(=O)Nc3cc(C(=O)Nc4ccc(S(=O)(=O)O)c5cc(S(=O)(=O)O)cc(S(=O)(=O)O)c45)ccc3C)c2)c1 [suramin]
effect on CHIKV infection in mice (CHIKV [3]): ameliorate CHIKV infection in mice | EC50 (CHIKV [4]): 21.5 µM

CCCCCCCCCCC[C@@H](C[C@@H]1OC(=O)[C@H]1CCCCCC)OC(=O)[C@H](CC(C)C)NC=O [orlistat]
EC50 (CHIKV [4]): 0.82 µM

CC(=O)Oc1ccccc1C(=O)Nc1ncc([N+](=O)[O-])s1 [nitazoxanide]
EC50 (CHIKV [4]): 2.96 µM

COC(=O)Nc1nc2ccc(C(=O)c3ccccc3)cc2[nH]1 [MBZ, mebendazole]
CC50 at 72 h [1]: > 500 µM | EC50 (CHIKV BRA/RJ/18 [2]): > 50 µM | CHIKV BRA/RJ/18 EC50 (CHIKV BRA/RJ/18 [2]): none exhibited anti-CHIKV activity

CCN(CC)CCCC(C)Nc1ccnc2cc(Cl)ccc12 (stereo not drawn) [CQ, chloroquine]
inhibition at 50 µM (CHIKV 181-25 strain): 98.2 ± 0.2% | CC50 at 72 h [1]: 469 ± 84.4 µM | EC50 (CHIKV BRA/RJ/18 [2]): 47.5 ± 10.2 µM | inhibition at 50 µM (CHIKV BRA/RJ/18 [2]): 48.5 ± 11.7% | CHIKV BRA/RJ/18 SI (selectivity index) (CHIKV BRA/RJ/18 [2]): 9.9

CCCCCOc1ccc(-c2cc(-c3ccc(C(=O)N[C@H]4C[C@@H](O)[C@@H](O)NC(=O)[C@@H]5[C@@H](O)[C@@H](C)CN5C(=O)[C@H]([C@H](O)CC(N)=O)NC(=O)[C@H]([C@H](O)[C@@H](O)c5ccc(O)c(OS(=O)(=O)O)c5)NC(=O)[C@@H]5C[C@@H](O)CN5C(=O)[C@H]([C@@H](C)O)NC4=O)cc3)no2)cc1 [micafungin] (X1-[Orn(4R-OH,5R-OH)]T[Hyp][hTyr(3S-OH,4S-OH,3'-OSO3H)][Gln(3R-OH)][Pro(3S-OH,4S-Me)]; lactam 1-C)
EC50 (CHIKV [4]): 20.6 µM

CCCSc1ccc2nc(NC(=O)OC)[nH]c2c1 [ABZ, albendazole]
CC50 at 72 h [1]: > 500 µM | EC50 (CHIKV BRA/RJ/18 [2]): > 50 µM | CHIKV BRA/RJ/18 EC50 (CHIKV BRA/RJ/18 [2]): none exhibited anti-CHIKV activity
